This is an account of results in patent US20250312345A1, “NON-COVALENT INHIBITORS OF THE MAIN PROTEASE OF SARS-COV-2 AND METHODS OF USE” (YALE UNIVERSITY, priority 2022, published 2025).

Series [1] concerns the target SARS-CoV-2 M^pro (Severe acute respiratory syndrome coronavirus 2, UniProt P0DTD1). The series is described as follows: biochemical. The class given is biochemical.
Series [2] in a line: Thermodynamic aqueous solubility, shake-flask. It is filed as physicochemical. The conditions noted are these: 48 h. On the procedure:
The calibration and measurement (after 48 h of stirring) were performed on the same day.

Series [3] has as its system SARS-CoV-2 replicon. The series is described as follows: microbe, parasite or virus in culture. It is filed as cell-based. The settings on record: for IC50: read-out: calculated IC50, compound alone.
For series [4], the system named is SARS-CoV-2 replicon. It is filed as cell-based.
Series [5] concerns Vero E6 cells. The conditions noted are these: cited from earlier work.
Series [6] relates to normal human bronchial epithelial cells (NHBE). The settings on record: cited from earlier work.
Series [7] can be described thus: PAMPA assay. The settings on record: PBS pH 7.4, 5% DMSO, 18 hours, room temperature.
Series [8] has as its system normal human bronchial epithelial cells (NHBE). The settings on record: for CC50: human.
Series [9] has as its system panel of 35 targets including CYP450 isoforms, ions channels, receptors. The series is described as follows: In vitro pharmacological profiling against targets for adverse drug reactions. The conditions noted are these: percentage inhibition at 10 μM. As to the method:
(§1) Rows represent compounds tested and columns represent targets. Percentage inhibition at 10 μM concentration of the compounds is color-coded. A panel of 35 targets including CYP450 isoforms, ions channels, receptors examined for off-target effects.

Series [10] concerns Vero E6 cells. The settings on record: African green monkey.
Series [11] deals with HERG ion channel (Homo sapiens, UniProt Q12809). Briefly: In vitro pharmacological profiling, HERG. The conditions noted are these: at high concentrations. On the procedure: as §1
Series [12] deals with SARS-CoV-2 replication. Briefly: Serum and lung tissue extracts tested on SARS-CoV-2 replication in cell culture. It is filed as cell-based. The settings on record: extracts of mice dosed with compound 61.
A short description of series [13]: in vitro.
[14] abbreviates: Britton-Robinson buffer pH 6.5, shake-flask, 21-22° C.
Where [15] appears, read: 13 combined with remdesivir, MacSynergy II.
[16] abbreviates: read-out: CC50 Vero E6, Table 3, marked g: Zhang et al., ACS Cent. Sci. 2021.
Setting [17] is: read-out: CC50 NHBE, Table 3, marked g: Zhang et al., ACS Cent. Sci. 2021.

Read-outs that look alike come from different tables or passages of the source.

Sequence of HERG ion channel (Q12809 whole entry): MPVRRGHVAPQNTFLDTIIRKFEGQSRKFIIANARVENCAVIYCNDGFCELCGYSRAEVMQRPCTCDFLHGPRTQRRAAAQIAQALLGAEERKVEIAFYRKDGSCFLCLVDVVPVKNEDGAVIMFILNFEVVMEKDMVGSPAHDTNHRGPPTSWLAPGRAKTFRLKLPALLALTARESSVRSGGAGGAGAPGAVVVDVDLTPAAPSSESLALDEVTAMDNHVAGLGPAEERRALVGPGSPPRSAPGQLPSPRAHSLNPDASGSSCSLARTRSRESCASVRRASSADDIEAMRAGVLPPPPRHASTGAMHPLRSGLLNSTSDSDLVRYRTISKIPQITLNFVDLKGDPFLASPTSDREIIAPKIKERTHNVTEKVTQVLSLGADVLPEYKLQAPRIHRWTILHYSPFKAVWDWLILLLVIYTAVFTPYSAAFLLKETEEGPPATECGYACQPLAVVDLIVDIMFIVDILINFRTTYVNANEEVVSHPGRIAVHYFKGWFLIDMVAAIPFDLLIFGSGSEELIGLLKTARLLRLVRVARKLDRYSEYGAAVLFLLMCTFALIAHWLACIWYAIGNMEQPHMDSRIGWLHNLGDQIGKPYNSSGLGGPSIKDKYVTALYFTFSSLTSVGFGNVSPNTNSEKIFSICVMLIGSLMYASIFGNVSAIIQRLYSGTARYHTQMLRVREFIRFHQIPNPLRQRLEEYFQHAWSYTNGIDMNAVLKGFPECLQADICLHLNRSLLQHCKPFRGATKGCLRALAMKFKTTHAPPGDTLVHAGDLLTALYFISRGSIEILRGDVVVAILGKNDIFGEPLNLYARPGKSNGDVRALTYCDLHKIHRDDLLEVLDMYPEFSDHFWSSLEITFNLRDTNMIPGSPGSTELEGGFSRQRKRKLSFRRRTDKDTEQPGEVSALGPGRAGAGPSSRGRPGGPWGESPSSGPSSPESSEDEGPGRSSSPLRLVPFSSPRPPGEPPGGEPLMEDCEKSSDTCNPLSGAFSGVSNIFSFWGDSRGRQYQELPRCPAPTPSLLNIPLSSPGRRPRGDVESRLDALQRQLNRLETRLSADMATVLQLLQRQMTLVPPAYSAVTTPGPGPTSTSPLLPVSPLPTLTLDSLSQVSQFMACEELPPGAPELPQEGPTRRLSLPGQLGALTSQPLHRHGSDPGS

As usually defined, the IC50 is the concentration at which inhibition is half-maximal. Consider `O=c1ccn(-c2cc(-c3ccccc3)c(=O)n(-c3cccnc3)c2)c(=O)[nH]1` [Cmpd 1], for which half-maximal inhibition in [1] (Table 4) (IC50) was put at 100 µM.
On to `N#Cc1ccccc1-c1cc(-c2cccc(Cl)c2)c(=O)n(-c2ccc[n+]([O-])c2)c1` [Cmpd 10], for which, in [1] (Table 4), the IC50 was 15.6 ± 2.37 µM.
Same read-out and setting: with `N#Cc1ccccc1-c1cc(-c2cc(Cl)cc(Cl)c2)c(=O)n(-c2ccc[n+]([O-])c2)c1` [Cmpd 11] the figure was 5 to 20 µM; with `N#Cc1cccc(-c2cc(-c3c[nH]c(=O)[nH]c3=O)cn(-c3cccnc3)c2=O)c1` [Cmpd 19], roughly 10 µM; with `COc1cc(F)cc(-c2cc(-c3c[nH]c(=O)[nH]c3=O)cn(-c3cccnc3)c2=O)c1` [Cmpd 20], 10 to 100 µM.
On the same count and under the same terms, with `COc1ccc(-c2cc(-c3cccc(Cl)c3)c(=O)n(-c3cccnc3)c2)c(C#N)n1` [Cmpd 22] the figure was 10 to 100 µM; with `N#Cc1[nH]c(=O)ccc1-c1cc(-c2cccc(Cl)c2)c(=O)n(-c2cccnc2)c1` [Cmpd 23], roughly 10 µM.
In turn, `COc1cc(CCOc2cc(Cl)cc(-c3cc(-c4ccccc4C#N)cn(-c4cccnc4)c3=O)c2)cc(OC)c1` [Cmpd 30] came in with a concentration for half-maximal inhibition (IC50) in series [1] (Table 4) greater than 1 µM.
For the molecule `CCNC(=O)COc1cc(Cl)cc(-c2cc(-c3ccccc3C#N)cn(-c3cccnc3)c2=O)c1` [Cmpd 33], the IC50 in series [1] (Table 4) is 0.5 to 1 µM.
In turn, `Cc1ocnc1COc1cc(Cl)cc(-c2cc(-c3c[nH]c(=O)[nH]c3=O)cn(-c3cccnc3)c2=O)c1` [Cmpd 49] registered an aq. sol. in [2] (setting [14]) of 7.6 ± 0.7 µg/mL.
The molecule `O=c1ccn(-c2cc(-c3cc(Cl)cc(OCC4CC4)c3)c(=O)n(-c3cccnc3)c2)c(=O)[nH]1` [Cmpd 54] displayed a half-inhibitory concentration (IC50) in series [1] (Table 4) of 1.2 ± 0.1 µM.
On the same count and under the same terms, with `O=c1c(-c2cc(Cl)cc(OCC3CC3)c2)cc(-c2ccc(F)cc2F)cn1-c1cccnc1` [Cmpd 55] the figure was roughly 10 µM; with `N#Cc1ccc(F)cc1-c1cc(-c2cc(Cl)cc(OCC3CC3)c2)c(=O)n(-c2cccnc2)c1` [Cmpd 56], 0.427 ± 0.027 µM; with `CN(C)c1ccc(C#N)c(-c2cc(-c3cc(Cl)cc(OCC4CC4)c3)c(=O)n(-c3cccnc3)c2)c1` [Cmpd 58], 1.3 ± 0.2 µM.
Consider `Cn1ccnc1COc1cc(Cl)cc(-c2cc(-c3ccccc3C#N)cn(-c3cccnc3)c2=O)c1` [Cmpd 59], for which, in series [1] (Table 4), the concentration for half-maximal inhibition (IC50) was roughly 0.194 µM.
Turning to `Cn1cc(-c2cc(-c3cc(Cl)cc(OCc4ocnc4C(F)(F)F)c3)c(=O)n(-c3cccnc3)c2)c(=O)[nH]c1=O` [Cmpd 65], the aq. sol. in series [2] (setting [14]) was 34.5 ± 0.3 µg/mL.
As to `O=c1[nH]cc(-c2cc(-c3cc(Cl)cc(OCC4CC4)c3)c(=O)n(-c3cncc4ccccc34)c2)c(=O)[nH]1` [Cmpd 66], the half-inhibitory concentration (IC50) in [1] (Table 4) was found to be 0.04 ± 0.002 µM.
Consider `N#Cc1ccccc1-c1cc(-c2cc(Cl)cc(Cl)c2)c(=O)n(-c2cccnc2)c1` [Compound 9, 2-(3-(3,5-Dichlorophenyl)-2-oxo-2H-[1,3′-bipyridin]-5-yl)benzonitrile], for which, in [3] (Severe acute respiratory syndrome coronavirus 2, BHK), the half-inhibitory concentration (IC50) is 0.0938 µM.
Take `CCCOc1cc(Cl)cc(-c2cc(-c3ccccc3C#N)cn(-c3cccnc3)c2=O)c1` [Compound 13, 2-(3-(3-Chloro-5-propoxyphenyl)-2-oxo-2H-[1,3′-bipyridin]-5-yl)benzonitrile]: the “factor of improvement in potency over 9” value in series [1] (IC50 of 13 versus 9) is reported as “ca. 30”. In addition, in [4] (setting [15]), the mean antagonism volume was determined as 0 M^2% and the mean synergy volume is recorded as 30.8 M^2%. Further, the “combination behavior with remdesivir” value in [4] (range of combinations of 13 and remdesivir, FIG. 3) was “statistically significant synergistic behavior”. Moreover, the CC50 in [5] (setting [16]) is 22 ± 7.2 µM. Also, the CC50 in [6] (setting [17]) is 20 ± 2 µM.
As to `O=c1[nH]cc(-c2cc(-c3cc(Cl)cc(OCc4ccccc4)c3)c(=O)n(-c3cccnc3)c2)c(=O)[nH]1` [Compound 21], the concentration for half-maximal inhibition (IC50) in series [1] (read-out: IC50 (μM), inhibition of SARS-CoV-2 M^pro, Table 1 and text, 100 nM M^pro, FRET substrate, triplicate) was found to be 0.128 µM.
Consider `N#Cc1ccccc1-c1cc(-c2cc(Cl)cc(OCC3CC3)c2)c(=O)n(-c2cccnc2)c1` [Compound 39, 2-(3-(3-Chloro-5-(cyclopropylmethoxy)phenyl)-2-oxo-2H-[1,3′-bipyridin]-5-yl)benzonitrile], for which the aq. sol. in series [2] (setting [14]) came out at 3 ± 2 µg/mL. Also, the PAMPA permeability in series [7] is 4.27 ± 0.07 10^−6 cm/s. The CC50 in series [5] and in [6] was greater than 100 µM each time.
Consider `N#Cc1ccccc1-c1cc(-c2cc(Cl)cc(OCCC(F)(F)F)c2)c(=O)n(-c2cccnc2)c1` [Compound 47, 2-(3-(3-Chloro-5-(3,3,3-trifluoropropoxy)phenyl)-2-oxo-2H-[1,3′-bipyridin]-5-yl)benzonitrile], for which the “cytotoxicity towards NHBE cells” value in [8] is given as “more cytotoxic”.
In general, EC50 refers to the concentration giving half of the maximal effect. As to `O=c1[nH]cc(-c2cc(-c3cc(Cl)cc(OCc4ccc(F)cc4Cl)c3)c(=O)n(-c3cccnc3)c2)c(=O)[nH]1` [Compound 48, 5-(3-(3-Chloro-5-((2-chloro-4-fluorobenzyl)oxy)phenyl)-2-oxo-2H-[1,3′-bipyridin]-5-yl)pyrimidine-2,4(1H,3H)-dione], the aq. sol. in series [2] (pH 6.5) was 25.0 ± 0.1 µg/mL. Also, the figures for the CC50 in series [5] and in series [6] were 22 ± 8 µM and 25 ± 5 µM, respectively. In series [3] (Table 3), the midpoint of the response, the EC50, lay at 120 ± 0.2 µM.
As to `Cn1cc(-c2cc(-c3cc(Cl)c(F)c(OCc4ccccc4Cl)c3)c(=O)n(-c3cccnc3)c2)c(=O)[nH]c1=O` [Compound 61], the “combination effect with EIDD-1931” value in series [4] (combination of EIDD-1931 and compound 61, FIG. 6) is on record as “synergistic effect”. In series [2] (setting [14]), this molecule had an aq. sol. of 116.5 ± 8.8 µg/mL. Also, the “off-target effects” value in series [9] is “no significant off-target effects”. Besides, the CC50 in [10] was greater than 32.5 µM; in [8], greater than 32.5 µM; in series [13], greater than 32 µM. For the same molecule, the “inhibition of HERG ion channel” value in series [11] was “minimal inhibition”. Besides, the “inhibition of SARS-CoV-2 replication by serum and lung tissue extracts” value in [12] is “exhibited inhibition”.
With `O=c1nc(NO)ccn1[C@@H]1O[C@H](CO)[C@@H](O)[C@H]1O` [EIDD-1931, reference compound], the IC50 in series [3] was 2.23 µM.
`O=c1[nH]cc(-c2cc(-c3cc(Cl)c(F)c(OCc4ccccc4Cl)c3)c(=O)n(-c3cccnc3)c2)c(=O)[nH]1` [compound 43]: the aq. sol. in [2] (setting [14]) amounted to 21.8 ± 0.9 µg/mL. Further, the CC50 was greater than 80 µM in series [10] and greater than 95 µM in series [8]. Further, the PAMPA permeability in [7] was 0.73 ± 0.05 10^−6 cm/s.
In turn, `Cc1ocnc1COc1cc(Cl)cc(-c2cc(-c3ccccc3C#N)cn(-c3cccnc3)c2=O)c1` [compound 50] came in with an aq. sol. in [2] (setting [14]) of 13.1 ± 0.3 µg/mL. Moreover, the PAMPA permeability in series [7] is reported as 3.04 ± 0.09 10^−6 cm/s.
For the molecule `Cc1scnc1COc1cc(Cl)cc(-c2cc(-c3c[nH]c(=O)[nH]c3=O)cn(-c3cccnc3)c2=O)c1` [compound 51], the CC50 was greater than 100 µM in series [10] and 22 µM in [8].
With `Cn1cc(-c2cc(-c3cc(Cl)cc(OCC4CC4)c3)c(=O)n(-c3cccnc3)c2)c(=O)[nH]c1=O` [compound 57], in series [2] (setting [14]), the aq. sol. stood at 14.2 ± 0.7 µg/mL. The CC50 in series [10] was 82 µM; in series [8], greater than 100 µM.
Take `Cn1cc(-c2cc(-c3cc(Cl)cc(OCCC(F)(F)F)c3)c(=O)n(-c3cccnc3)c2)c(=O)[nH]c1=O` [compound 60]: in series [2] (setting [14]), the aq. sol. came to 57.0 ± 0.4 µg/mL. The results for the CC50 in series [10] and in series [8] were greater than 100 µM and roughly 95 µM, respectively.
For the molecule `O=c1[nH]cc(-c2cc(-c3cc(Cl)cc(OCc4ocnc4C(F)(F)F)c3)c(=O)n(-c3cccnc3)c2)c(=O)[nH]1` [compound 62], the CC50 in series [10] and in [8] was greater than 100 µM in each case. For the same molecule, the PAMPA permeability in series [7] is listed as 0.57 ± 0.09 10^−6 cm/s.
As to `O=c1[nH]cc(-c2cc(-c3cc(Cl)cc(OCc4scnc4C(F)(F)F)c3)c(=O)n(-c3cccnc3)c2)c(=O)[nH]1` [compound 63], the CC50 in [10] and in [8] was greater than 100 µM each time.
On to `Cn1cc(-c2cc(-c3cc(Cl)cc(OCc4scnc4C(F)(F)F)c3)c(=O)n(-c3cccnc3)c2)c(=O)[nH]c1=O` [compound 64], for which the aq. sol. in series [2] (setting [14]) amounted to 24.8 ± 1.4 µg/mL. In addition, the CC50 in series [10] and in series [8] was greater than 100 µM each time. Moreover, the PAMPA permeability in series [7] is 1.16 ± 0.32 10^−6 cm/s.
Regarding `CCC(CC)COC(=O)[C@H](C)N[P@](=O)(OC[C@H]1O[C@@](C#N)(c2ccc3c(N)ncnn23)[C@H](O)[C@@H]1O)Oc1ccccc1` [remdesivir, reference compound], the CC50 in series [5] (setting [16]) was 72 ± 28 µM; in [6] (setting [17]) it was 41 ± 2 µM.
